Laboratory results taken from PubChem BioAssay (NCI).
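How tested: cells in 96-well plates exposed to compound for 48 hours at five concentrations. Definition used: TGI = concentration required for complete inhibition of growth.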

What was measured:
Assay in all cases: inhibition of tumour cell growth, NCI panel, 48 h
[1] = tested on: HOP-62 NSCLC
[2] = tested on: OVCAR-3 ovarian
[3] = tested on: SNB-78 CNS
[4] = tested on: XF 498 CNS
[5] = tested on: SK-OV-3 ovarian
[6] = tested on: OVCAR-4 ovarian
[7] = tested on: IGROV1 ovarian
[8] = tested on: OVCAR-8 ovarian
[9] = tested on: EKVX NSCLC
[10] = tested on: RXF 393 renal
[11] = tested on: HOP-92 NSCLC
[12] = tested on: ACHN renal
[13] = tested on: M19-MEL melanoma
[14] = tested on: DMS 114 small cell lung
[15] = tested on: SK-MEL-28 melanoma
[16] = tested on: DLD-1 colon
[17] = tested on: UO-31 renal
[18] = tested on: U251 CNS
[19] = tested on: 786-0 renal
[20] = tested on: HOP-18 NSCLC
[21] = tested on: MALME-3M melanoma
[22] = tested on: SF-268 CNS
[23] = tested on: TK-10 renal
[24] = tested on: SNB-75 CNS
[25] = tested on: UACC-62 melanoma
[26] = tested on: SF-539 CNS
[27] = tested on: SW-620 colon
[28] = tested on: M14 melanoma
[29] = tested on: RXF-631 renal
[30] = tested on: SK-MEL-5 melanoma
[31] = tested on: HL-60(TB) leukemia
[32] = tested on: KM20L2 colon
[33] = tested on: HCT-116 colon
[34] = tested on: SNB-19 CNS
[35] = tested on: A498 renal
[36] = tested on: LXFL 529 NSCLC
[37] = tested on: A549 NSCLC
[38] = tested on: SF-295 CNS
[39] = tested on: SN12C renal
[40] = tested on: CCRF-CEM leukemia
[41] = tested on: OVCAR-5 ovarian
[42] = tested on: COLO 205 colon
[43] = tested on: NCI-H226 lung
[44] = tested on: UACC-257 melanoma
[45] = tested on: NCI-H460 lung
[46] = tested on: HCC-2998 colon
[47] = tested on: HT29 colon
[48] = tested on: HCT-15 colon
[49] = tested on: SK-MEL-2 melanoma
[50] = tested on: KM12 colon
[51] = tested on: NCI-H23 lung

CCCCCCCCCCCCCP(=O)(NCC(N)=O)OCC (stereo unspecified)
TGI [1]: 32 µM | TGI [2]: 28.9 µM | TGI [3]: 41.2 µM | TGI [4]: 34.9 µM | TGI [5]: 41.8 µM | TGI [6]: 32.2 µM | TGI [7]: 39.4 µM | TGI [8]: 45.8 µM | TGI [9]: 41 µM | TGI [10]: 37.7 µM | TGI [11]: 31.1 µM | TGI [12]: 47.9 µM | TGI [13]: 35.2 µM | TGI [14]: 33.4 µM | TGI [15]: 32.3 µM | TGI [16]: 32.7 µM | TGI [17]: 27.1 µM | TGI [18]: 33 µM | TGI [19]: 29 µM | TGI [20]: 14.8 µM | TGI [21]: 32.6 µM | TGI [22]: 38.4 µM | TGI [23]: 37.4 µM | TGI [24]: 19.9 µM | TGI [25]: 33 µM | TGI [26]: 31.3 µM | TGI [27]: 41 µM | TGI [28]: 30.6 µM | TGI [29]: 35.5 µM | TGI [30]: 35.3 µM | TGI [31]: 38.2 µM | TGI [32]: 32.7 µM | TGI [33]: 28 µM | TGI [34]: 34.3 µM | TGI [35]: 95.7 µM | TGI [36]: 30.8 µM | TGI [37]: 40.7 µM | TGI [38]: 31.2 µM | TGI [39]: 34.3 µM | TGI [40]: 47.7 µM | TGI [41]: 38.3 µM | TGI [42]: 34 µM | TGI [43]: 33.5 µM | TGI [44]: 36.1 µM | TGI [45]: 39.8 µM | TGI [46]: 35.3 µM | TGI [47]: 31.7 µM | TGI [48]: 36 µM | TGI [49]: 30.3 µM | TGI [50]: 34 µM | TGI [51]: 44 µM
